# In article PMC6613030, “LC-ESI-MS/MS Phenolic Profile of Volutaria lippii (L.) Cass. Extracts and Evaluation of Their In Vitro Antioxidant, Antiacetylcholinesterase, Antidiabetic, and Antibacterial Activities” (Evidence-based Complementary and Alternative Medicine : eCAM, 2019):
# Marks after values point to notes of the source that are not given here.
# Columns and labels:
# [1] = DPPH radical scavenging assay; settings: 30 min in the dark, absorbance at 517 nm
# Experimental: The DPPH radical scavenging activity of different fractions of V. lippii was evaluated following the procedure described by Les et al. [14]. […] The final concentrations in the reaction's mixture were 0.005-0.5 mg/mL. Each mixture was shaken and allowed in the dark for 30 min at room temperature. The blank was prepared as above without any extract and the BHT was used as positive control. […] The PI was calculated using the following equation:(1) PI%=Ablank – Asample/Ablank×100 where Ablank is the absorbance of the blank and Asample is the absorbance of the test sample.
# The calibration curve for scavenging percentage against extract concentration was plotted and the IC50 (half maximal inhibitory concentration) value of each sample was established.
# [2] = Reducing power assay (FRAP); settings: effective concentration at which the absorbance is 0.5 (700 nm)
# Experimental: The reducing power of all fractions was evaluated using the procedure of Yildirim et al., and BHT was used as positive control. A 1 mL of different concentrations of each V. lippii sample (5, 10, 25, 50,100 μg/mL) was mixed with 2.5 mL of 1% potassium ferricyanide and 2.5 mL of sodium phosphate buffer (0.2 M, pH= 6.6). The mixture was incubated for 20 min at 50°C and then 2.5 mL of 10% trichloroacetic acid were added and centrifuged for 10 minutes. 2.5 mL of the supernatant were mixed with 0.5 mL of ferric chloride solution (0.1%) and 2.5 mL of distilled water. The absorbance of the mixture was measured at 700 nm.
# [3] = target: T1, pancreatic α-amylase (Sus scrofa, UniProt P00690); experiment: biochemical
# T1 construct: purchased Merck (Sigma-Aldrich, Steinheim, Germany)
# T1 sequence (P00690 16-511): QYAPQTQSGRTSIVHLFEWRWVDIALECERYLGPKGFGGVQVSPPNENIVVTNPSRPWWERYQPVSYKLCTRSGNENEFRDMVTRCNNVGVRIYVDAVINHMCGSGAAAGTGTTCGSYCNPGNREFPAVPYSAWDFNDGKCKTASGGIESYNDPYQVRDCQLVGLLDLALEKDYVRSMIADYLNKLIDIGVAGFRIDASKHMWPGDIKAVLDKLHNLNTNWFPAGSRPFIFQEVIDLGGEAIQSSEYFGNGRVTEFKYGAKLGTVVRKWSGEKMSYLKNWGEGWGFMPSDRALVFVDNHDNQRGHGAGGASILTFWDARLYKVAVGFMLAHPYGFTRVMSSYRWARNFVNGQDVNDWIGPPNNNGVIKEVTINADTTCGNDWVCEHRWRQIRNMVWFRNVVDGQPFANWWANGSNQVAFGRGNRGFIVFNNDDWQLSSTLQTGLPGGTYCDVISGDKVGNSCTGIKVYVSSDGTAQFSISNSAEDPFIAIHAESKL
# Experimental: The in vitroα-amylase inhibitory assay of all fractions was performed by the previous method described by Gella et al.. […] Percentage inhibition (PI) was calculated by the following expression:(3) PI%=Acontrol – Asample/Acontrol×100 where Acontrol is the absorbance of the control and Asample is the absorbance of the test sample.
# [4] = test system: Bacillus thuringiensis; experiment: Antibacterial activity, agar disc diffusion; type: cell-based; settings: 10 μg / disc, positive control
# Experimental: (§1) The V. lippii fractions were assessed against a five bacterial strains: Gram-negative: Salmonella enterica (CIP 8039) and Escherichia coli (ATCC 8739), Gram-positive: Staphylococcus aureus (ATCC 6538), Bacillus thuringiensis, and Enterococcus faecalis (ATCC 29212). Bacteria not obtained from an ATCC collection were acquired from the Microbiology Department, Faculty of Science, University of Sfax (Tunisia). Bacterial strains were cultured in Mueller-Hinton agar (MHA) for 24 h at 37°C.
# (§2) The disc diffusion method was employed for the determination of antibacterial activities of V. lippii fractions according to the method described by Berghe and Vlietinck. Antibacterial activities were evaluated by measuring the diameters of the inhibition zones against the test organisms and compared to penicillin (10 μg per disk) as the positive control. Tests were carried out in triplicate.
# [5] = test system: Enterococcus faecalis (ATCC 29212); experiment: Antibacterial activity, agar disc diffusion; type: cell-based; settings: 10 μg / disc, positive control
# Experimental: as §1, §2
# [6] = test system: Escherichia coli (ATCC 8739); experiment: Antibacterial activity, agar disc diffusion; type: cell-based; settings: 10 μg / disc, positive control
# Experimental: as §1, §2
# [7] = test system: Staphylococcus aureus (ATCC 6538); experiment: Antibacterial activity, agar disc diffusion; type: cell-based; settings: 10 μg / disc, positive control
# Experimental: as §1, §2
compound,measurement,setting,value
"Cc1cc(C(C)(C)C)c(O)c(C(C)(C)C)c1 [BHT, butylated hydroxytoluene]",DPPH IC50,[1],13.00±0.57^a μg/mL
same,Reducing power EC50,[2],43.35±0.95^a μg/mL
"C[C@H]1O[C@H](O[C@H]2[C@H](O)[C@@H](O)[C@@H](O[C@H]3[C@H](O)[C@@H](O)C(O)O[C@@H]3CO)O[C@@H]2CO)[C@H](O)[C@@H](O)[C@@H]1N[C@H]1C=C(CO)[C@@H](O)[C@H](O)[C@H]1O (stereo partly drawn) [Acarbose, acarbose]",inhibition at 2.85 µg/mL,[3]; concentration 2.85 μg/mL,29.8 ± 0.07%
same,inhibition at 5.71 µg/mL,[3]; concentration 5.71 μg/mL,51.52 ± 0.02%
same,inhibition at 11.42 µg/mL,[3]; concentration 11.42 μg/mL,86.62 ± 0.04%
penicillin,Inhibition zone in diameter,[4],18.0±0.4^d mm
same,Inhibition zone in diameter,[5],16.0±0.2^c mm
same,Inhibition zone in diameter,[6],16.3±0.1^d mm
same,Inhibition zone in diameter,[7],14.1±0.5^c mm
